IC50 and Ki data for 32 molecules are collected here from patent publication US9079866B2, “Flap modulators” (JANSSEN PHARMACEUTICA NV, priority 2013, dated 2015).

The test system of experiment [1] is leukotriene pathway in human whole blood (LTB4 levels). In words: Human whole blood assay (A23187-stimulated LTB4). The settings on record: read-out: LTB4 IC50 1:1. The class given is cell-based. The procedure, abridged:
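Heparinised human whole blood, diluted 1:1 in RPMI, was pre-incubated with test compounds for 15 min at 37° Celsius, then stimulated with A23187 (7 μg/mL) for 30 min at 37° Celsius. Plasma LTB4 was measured by immunoassay kit; IC50 from 4-parameter fit; single replicate, at least one healthy donor.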

In experiment [2] the target is human FLAP (Homo sapiens (Human), UniProt P20292). Briefly: FLAP binding assay (HTRF format). The procedure, abridged:
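Read-out is the HTRF ratio. Each reported figure averages two assay plates on which samples were tested in duplicate.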
A general note: Time-resolved FRET reads energy transfer from a long-lived donor to a nearby acceptor.

Where [3] appears, read: Homo sapiens, human whole blood diluted 1:1, A23187-stimulated.
Where [4] appears, read: Homo sapiens, human whole blood diluted 1:1 in RPMI, A23187-stimulated LTB4.
Setting [5] is: human FLAP wild type, HTRF format, average of two plates, duplicates.

Counter-ions that a name gives are not always drawn. Like-named read-outs stand apart in the source and are kept apart here.

Sequence of human FLAP (P20292 whole entry): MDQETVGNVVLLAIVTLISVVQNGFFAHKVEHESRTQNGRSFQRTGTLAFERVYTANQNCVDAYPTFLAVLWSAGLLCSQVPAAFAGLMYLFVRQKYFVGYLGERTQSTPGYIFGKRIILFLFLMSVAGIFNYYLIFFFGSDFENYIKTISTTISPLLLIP

On to `Nc1cnc(-c2ccc(-c3ccccc3S(=O)(=O)c3ccccc3)cc2F)cn1` [Example 477, 5-[3-Fluoro-2′-(phenylsulfonyl)biphenyl-4-yl]pyrazin-2-amine], for which the IC50 (as a rule, the concentration that gives 50% inhibition) in experiment [1] (setting [3]) is 738 nM. For the same molecule, in experiment [2] (wild type FLAP, HTRF format), the Ki (usually the equilibrium dissociation constant of an inhibitor or competing ligand from its target) is 16 nM.

Take `CCNS(=O)(=O)c1ccccc1-c1ccc(-c2cnc(N)nc2)nc1` [Example 683, 2-[6-(2-Aminopyrimidin-5-yl)pyridin-3-yl]-N-ethylbenzenesulfonamide trifluoroacetic acid salt]: the IC50 in experiment [1] (setting [3]) came out at 280 nM. In experiment [2] (wild type FLAP, HTRF format), this molecule showed a Ki of 602 nM.

Regarding `CC(C)(C)NS(=O)(=O)c1ccccc1-c1ccc(-c2cnc(N)cn2)cc1F` [Example 574, 4′-(5-Aminopyrazin-2-yl)-N-tert-butyl-2′-fluorobiphenyl-2-sulfonamide], the IC50 in experiment [1] (setting [3]) stood at 494 nM. The same molecule came in with a Ki in experiment [2] (wild type FLAP, HTRF format) of 15 nM.

As for `Nc1cnc(-c2ccc(-c3ccccc3Sc3ncccn3)cc2F)cn1` [Example 213, 5-[3-Fluoro-2′-(pyrimidin-2-ylsulfanyl)biphenyl-4-yl]pyrazin-2-amine hydrochloride], the IC50 in experiment [1] (setting [4]) amounted to 25 nM. For the same molecule, the Ki in experiment [2] (setting [5]) came out at 2 nM.

Take `CNS(=O)(=O)c1ccccc1-c1ccc(-c2cnc(N)nc2)c(F)c1` [Example 288, 4′-(2-Aminopyrimidin-5-yl)-3′-fluoro-N-methylbiphenyl-2-sulfonamide trifluoroacetic acid salt]: the IC50 in experiment [1] (setting [4]) is 420 nM. In addition, in experiment [2] (setting [5]), affinity was put at a Ki of 103 nM.

As to `Nc1ncc(-c2ccc(-c3ccc(C(F)(F)F)cc3O)cc2F)cn1` [Example 558, 4′-(2-Aminopyrimidin-5-yl)-3′-fluoro-4-(trifluoromethyl)biphenyl-2-ol], the IC50 in experiment [1] (setting [3]) was 210 nM. This molecule showed a Ki in experiment [2] (wild type FLAP, HTRF format) of 12 nM.

`Nc1ncc(-c2ccc(-c3ccc(C(F)(F)F)cc3S(=O)(=O)N3CCNC(=O)C3)cc2F)cn1` [Example 324, 4-{[4′-(2-Aminopyrimidin-5-yl)-3′-fluoro-4-(trifluoromethyl)biphenyl-2-yl]sulfonyl}piperazin-2-one]: in experiment [1] (setting [4]), the IC50 is 101 nM. Besides, in experiment [2] (setting [5]), the Ki turned out to be 19 nM.

In the case of `O=S(=O)(c1ccccc1-c1ccc(-c2cnc3[nH]ccc3c2)c(F)c1)C1CC1` [Example 365, 5-[2′-(Cyclopropylsulfonyl)-3-fluorobiphenyl-4-yl]-1H-pyrrolo[2,3-b]pyridine], in experiment [1] (setting [4]), the IC50 amounted to 60 nM. In experiment [2] (setting [5]), this molecule showed a Ki of 3 nM.

With `CCSCc1ccccc1-c1ccc(-c2cnc(N)cn2)c(F)c1` [Example 234, 5-{2′-[(Ethylsulfanyl)methyl]-3-fluorobiphenyl-4-yl}pyrazin-2-amine formic acid salt], the IC50 in experiment [1] (setting [4]) was 238 nM. Besides, the Ki in experiment [2] (setting [5]) stood at 25 nM.

In the case of `Nc1cnc(-c2ccc(-c3ccc(C(F)(F)F)cc3F)cc2F)cn1` [Example 471, 5-[2′,3-Difluoro-4′-(trifluoromethyl)biphenyl-4-yl]pyrazin-2-amine], the IC50 in experiment [1] (setting [3]) is 3400 nM. The molecule also gave a Ki in experiment [2] (wild type FLAP, HTRF format) of 250 nM.

Take `Nc1ncc(-c2ccc(-c3ccc(C(F)(F)F)cc3Oc3ccnc(N)n3)cc2F)cn1` [Example 560, 4-{[4′-(2-Aminopyrimidin-5-yl)-3′-fluoro-4-(trifluoromethyl)biphenyl-2-yl]oxy}pyrimidin-2-amine]: in experiment [1] (setting [3]), the IC50 stood at 95 nM. In addition, the Ki in experiment [2] (wild type FLAP, HTRF format) was 5 nM.

For the molecule `Nc1cnc(-c2ccc(-c3ccccc3S(=O)(=O)N(CCO)C3CCCCC3)cc2F)cn1` [Example 136, 4′-(5-Aminopyrazin-2-yl)-N-cyclohexyl-3′-fluoro-N-(2-hydroxyethyl)biphenyl-2-sulfonamide], the IC50 in experiment [1] (setting [4]) came out at 15 nM. Besides, the Ki in experiment [2] (setting [5]) came out at 1 nM.

In the case of `CCCS(=O)(=O)c1ccccc1-c1ccc(-c2cnc(N)cn2)c(F)c1` [Example 192, 5-[3-Fluoro-2′-(propylsulfonyl)biphenyl-4-yl]pyrazin-2-amine], the IC50 in experiment [1] (setting [4]) came to 171 nM. This molecule came in with a Ki in experiment [2] (setting [5]) of 58 nM.

In the case of `C[C@H](CO)NS(=O)(=O)c1ccccc1-c1ccc(-c2cnc(N)nc2)c(F)c1` [Example 289, 4′-(2-Aminopyrimidin-5-yl)-3′-fluoro-N-[(1R)-2-hydroxy-1-methylethyl]biphenyl-2-sulfonamide], the IC50 in experiment [1] (setting [4]) worked out at 36 nM. Affinity in experiment [2] (setting [5]) was put at a Ki of 22 nM.

For `Nc1cnc(-c2ccc(-c3ccc(C(F)(F)F)cc3C3=CCNCC3)cc2F)cn1` [Example 852, 5-[3-Fluoro-2′-(1,2,3,6-tetrahydropyridin-4-yl)-4′-(trifluoromethyl)biphenyl-4-yl]pyrazin-2-amine], the IC50 in experiment [1] (setting [3]) worked out at 1350 nM. This molecule also yielded a Ki in experiment [2] (wild type FLAP, HTRF format) of 118 nM.

For the molecule `CC(C)(CO)NS(=O)(=O)c1ccccc1-c1ccc(-c2cnc(N)c(F)c2)c(F)c1` [Example 667, 4′-(6-Amino-5-fluoropyridin-3-yl)-3′-fluoro-N-(1-hydroxy-2-methylpropan-2-yl)-[1,1′-biphenyl]-2-sulfonamide], the half-inhibitory concentration (IC50) in experiment [1] (setting [3]) is 39.6 nM. For the same molecule, in experiment [2] (wild type FLAP, HTRF format), the Ki was found to be 6 nM.

For the molecule `Cc1cc(-c2ccccc2S(=O)(=O)NC(C)(C)C)ccc1-c1cnc(N)cn1` [Example 569, 4′-(5-Aminopyrazin-2-yl)-N-tert-butyl-3′-methylbiphenyl-2-sulfonamide], the half-maximal inhibitory concentration (IC50) in experiment [1] (setting [3]) stood at 335 nM. This molecule also displayed a Ki in experiment [2] (wild type FLAP, HTRF format) of 70 nM.

In the case of `CN([C@H]1CCCNC1)S(=O)(=O)c1ccccc1-c1ccc(-c2cnc(N)cn2)c(F)c1` [Example 115, (S)-4′-(5-Aminopyrazin-2-yl)-3′-fluoro-N-methyl-N-piperidin-3-ylbiphenyl-2-sulfonamide], the IC50 in experiment [1] (setting [4]) worked out at 108 nM. Moreover, the Ki in experiment [2] (setting [5]) is 4 nM.

Consider `COc1ncccc1-c1ccc(-c2cnc(N)cn2)c(F)c1` [Example 404, 5-[2-Fluoro-4-(2-methoxypyridin-3-yl)phenyl]pyrazin-2-amine], for which, in experiment [1] (setting [3]), the IC50 was found to be 1490 nM. For the same molecule, in experiment [2] (wild type FLAP, HTRF format), the Ki turned out to be 155 nM.

For `N#CC1(S(=O)(=O)c2ccccc2-c2ccc(-c3cnc(N)nc3)c(F)c2)CCCC1` [Example 738, 1-{[4′-(2-Aminopyrimidin-5-yl)-3′-fluorobiphenyl-2-yl]sulfonyl}cyclopentanecarbonitrile], in experiment [1] (setting [3]), the IC50 was 2950 nM. Also, in experiment [2] (wild type FLAP, HTRF format), the affinity, expressed as Ki, was 240 nM.

Turning to `NC(=O)C1(S(=O)(=O)c2ccccc2-c2ccc(-c3cnc(N)cn3)c(F)c2)CCCC1` [Example 731, 1-{[4′-(5-Aminopyrazin-2-yl)-3′-fluorobiphenyl-2-yl]sulfonyl}cyclopentanecarboxamide], in experiment [1] (setting [3]), the IC50 was found to be 51.3 nM. This molecule had a Ki in experiment [2] (wild type FLAP, HTRF format) of 14.7 nM.

On to `Nc1ccc(Oc2ccccc2-c2ccc(-c3cnc(N)nc3)c(F)c2)nc1` [Example 621, 5-{2′-[(5-Aminopyridin-2-yl)oxy]-3-fluorobiphenyl-4-yl}pyrimidin-2-amine], for which, in experiment [1] (setting [3]), the IC50 is 101 nM. In addition, the Ki in experiment [2] (wild type FLAP, HTRF format) was determined as 5 nM.

With `CC(CO)NS(=O)(=O)c1ccccc1-c1ccc(-c2ccc(N)nc2)c(F)c1` (stereo in doubt) [Example 352, (R)-4′-(6-Aminopyridin-3-yl)-3′-fluoro-N-(1-hydroxypropan-2-yl)-[1,1′-biphenyl]-2-sulfonamide], the IC50 in experiment [1] (human whole blood diluted 1:1 in RPMI, A23187-stimulated LTB4) is 64 nM. The molecule also showed a Ki in experiment [2] (setting [5]) of 16 nM.

As for `Nc1cnc(-c2ccc(-c3cccnc3S(=O)(=O)CCN3CCOCC3)cc2F)cn1` [Example 822, 5-(2-Fluoro-4-(2-((2-morpholinoethyl)sulfonyl)pyridine-3-yl)phenyl)pyrazin-2-amine], the IC50 in experiment [1] (setting [3]) was found to be 99.1 nM. This molecule also had an inhibition constant Ki in experiment [2] (wild type FLAP, HTRF format) of 280 nM.

Turning to `Nc1ccnc(Sc2ccccc2-c2ccc(-c3cnc(N)nc3)c(F)c2)n1` [Example 330, 5-{2′-[(4-Aminopyrimidin-2-yl)sulfanyl]-3-fluorobiphenyl-4-yl}pyrimidin-2-amine formate salt], the IC50 in experiment [1] (setting [4]) amounted to 88 nM. The Ki in experiment [2] (read-out: FLAP Binding wild type HTRF Ki) was 12 nM.

Turning to `CCN(CC)C(=O)c1ccccc1-c1ccc(-c2cnc(N)cn2)c(F)c1` [Example 503, 4′-(5-Aminopyrazin-2-yl)-N,N-diethyl-3′-fluorobiphenyl-2-carboxamide], the IC50 in experiment [1] (setting [3]) turned out to be 92 nM. Moreover, in experiment [2] (wild type FLAP, HTRF format), the Ki is 14 nM.

Consider `CC(C)(C)NS(=O)(=O)c1ccccc1-c1ccc(-c2cnc(N)c(Br)n2)c(F)c1` [Example 442, 4′-(5-Amino-6-bromopyrazin-2-yl)-N-tert-butyl-3′-fluorobiphenyl-2-sulfonamide], for which, in experiment [1] (setting [3]), the IC50 was 9 nM. The molecule also yielded a Ki in experiment [2] (wild type FLAP, HTRF format) of 1 nM.

Take `CC(C)S(=O)(=O)c1ncccc1-c1ccc(-c2cnc(N)cn2)c(F)c1` [Example 395, 5-(2-Fluoro-4-{2-[(1-methylethyl)sulfonyl]pyridin-3-yl}phenyl)pyrazin-2-amine]: in experiment [1] (setting [3]), the IC50 was 32 nM. This molecule also had a Ki in experiment [2] (wild type FLAP, HTRF format) of 9 nM.

On to `CN([C@H]1CCCNC1)S(=O)(=O)c1ccccc1-c1ccc(-c2cnc(N)nc2)c(F)c1` [Example 256, 4′-(2-Aminopyrimidin-5-yl)-3′-fluoro-N-methyl-N-[(3S)-piperidin-3-yl]biphenyl-2-sulfonamide], for which, in experiment [1] (setting [4]), the IC50 stood at 73 nM. For the same molecule, the Ki in experiment [2] (setting [5]) stood at 35 nM.

For `NC(=O)C1(S(=O)(=O)c2ccccc2-c2ccc(-c3cnc(N)nc3)c(F)c2)CCCC1` [Example 739, 1-{[4′-(2-Aminopyrimidin-5-yl)-3′-fluorobiphenyl-2-yl]sulfonyl}cyclopentanecarboxamide], the IC50 in experiment [1] (setting [3]) stood at 1110 nM. The same molecule showed a Ki in experiment [2] (wild type FLAP, HTRF format) of 370 nM.

As to `N#Cc1nc(N)cnc1-c1ccc(-c2ccccc2Oc2ncccn2)cc1F` [Example 747, 6-Amino-3-[3-fluoro-2′-(pyrimidin-2-yloxy)biphenyl-4-yl]pyrazine-2-carbonitrile], the IC50 in experiment [1] (setting [3]) came to 262 nM. The Ki in experiment [2] (wild type FLAP, HTRF format) was 27.1 nM.

`Nc1ccc(-c2ccc(-c3ccccc3S(=O)(=O)N3CCC(O)CC3)cc2F)cn1` [Example 360, 1-((4′-(6-Aminopyridin-3-yl)-3′-fluoro-[1,1′-biphenyl]-2-yl)sulfonyl)piperidin-4-ol]: the IC50 in experiment [1] (setting [4]) came out at 67 nM. In experiment [2] (setting [5]), the affinity, expressed as Ki, was 22 nM.
